Test results as given in PMC5007466, “VCP recruitment to mitochondria causes mitophagy impairment and neurodegeneration in models of Huntington's disease” (Nature Communications, 2016).

Experiments:
[1] = tested on: HD patient-iPS cell derived neurons; assay: Mitochondrial membrane potential (TMRM), iPS neurons; format: cell-based, human; settings: 1 μM per day for 5 days
Experimental: (§1) iPS cells from a normal subject and a HD patient (carrying 41 CAG repeats) were differentiated into neurons using the protocol from our previous studies. Briefly, iPS cells were plated onto 6-well plates precoated with 2.5% Matrigel and allowed to reach 90% confluence in feeder-free medium. For the first 10 days, cells were treated with SB431542 (10 μM; Tocris Bioscience) and Noggin (100 ng/ml) in Neural Media (NM) containing Neurobasal and DMEM (1:1), B27 supplement minus vitamin A (50 × , Invitrogen), N2 supplement (100 × , Invitrogen), GlutaMax (Invitrogen, 100 × ), FGF2 ([…]) and EGF ([…]), 100 units per ml penicillin and 100 μg ml^−1 streptomycin). […]
(§2) To determine mitochondrial mass in cultures, cells were stained with antibodies against Tom20 or stained with Mitotracker green. The fluorescent density of Tom20 (1:500) or mitotracker green was quantitated using NIH Image J software. […] The images were visualized by microscope and quantitation of the density of red fluorescence was carried out using NIH ImageJ software. For immunocytochemistry study, at least 100 cells per group were counted and quantitated by an observer blind to experimental conditions.

[2] = tested on: HdhQ111 mouse striatal cells; assay: GFP-LC3B puncta; format: cell-based; settings: 3 uM/day for 3 days
Experimental: Figure 5 Treatment of HV-3 reduces excessive mitophagy in HD cell cultures and HD mouse brains. (a) HdhQ7 and HdhQ111 cells were treated with control siRNA (con) or VCP siRNA (siVCP) for 48 h. Mitochondria were isolated and LC3 mitochondrial levels were determined by WB. Representative blots are from three independent experiments. The quantitation of LC3 II levels on mitochondria is provided on the right. VADC was used as a loading control. (b) Flag-VCP and GFP-LC3B were co-transfected into wild-type striatal cells. Mitochondria were isolated after 36 h of transfection. The GFP-LC3B levels on mitochondria were examined by WB. VDAC was used as a loading control. Representative blots are from three independent experiments. Histogram: quantitation of GFP-LC3B mitochondrial protein level. HdhQ7 and HdhQ111 cells were treated with control peptide TAT or peptide HV-3 (3 uM/day for 3 days). (c) HdhQ111 cells were transfected with GFP-LC3B for 24 h. The number of GFP-LC3B puncta was quantitated and shown in the histogram. Scale bars: 10 μm. (d) Enzyme activity of lysosomal Cathepsin B was measured using a Cathepsin B assay kit. […] (e) Mitochondrial mass was measured by the fluorescent density of Mitotracker green. […] Histogram: the number of mitophagosomes per 100 μm^2 was counted and quantitated. Fifteen random areas in the striatum of each animal were analyzed. […]

[3] = tested on: wt mice (YAC128 littermates); assay: Motor activity of wt littermates of YAC128; format: in vivo, mouse; settings: 3 to 12 months of age, 3 mg/kg/day
Experimental: YAC128 mice (Tg) and their age-matched wt littermates were implanted with an osmotic pump containing TAT control peptide or HV-3 peptide (3 mg/kg/day, each) starting from the age of 3 months. The pump was replaced once every month. By the age of 12 months, the treatments were terminated and the mouse samples were harvested for analysis.
Gross locomotor activity was assessed in R6/2 mice and age-matched wt littermates at the ages of 13 weeks and in YAC128 mice and age-matched wt littermates at the ages of 2, 3, 6, 9, and 12 months. In an activity chamber (Omnitech Electronics, Inc), mice were placed in the center of the chamber and allowed to explore while being tracked by an automated beam system (Vertax, Omnitech Electronics Inc). Distance moved, horizontal, vertical, and rearing activities were recorded. Because R6/2 mice were sensitive to changes in environment and handling, we only conducted one-hour locomotor activity analysis for R6/2 mice and wt littermates. We performed 24 h of locomotor activity analysis for YAC128 mice and their wt littermates.
The motor coordination and balance of YAC128 mice were tested on an accelerating Rotarod (IITC Life Sciences, Serials 8) at the ages of 2, 3, 6, 9 and 12 months. Training and baseline testing for motor function tasks were conducted at 2 months of age. […]

[4] = tested on: HdhQ111 mouse striatal cells; assay: HMGB1 release after serum withdrawal; format: cell-based; settings: 24 h serum withdrawal, 3 μM
Experimental: HdhQ7 and Q111 mouse striatal cells were treated with the HV-3 peptide or the control peptide TAT (3 μM, each) in an FBS-free DMEM medium or in DMEM containing 10% serum for 24 h. Medium from the cultured cells was harvested. Proteins from the medium were purified using Amicon Ultra 0.5 ml centrifugal filters (Millipore). HMGB1 release into the medium was then analysed by Western blotting with anti-HMGB1 antibody. In parallel, cell death was determined by measuring LDH release into the culture medium, using LDH-Cytotoxicity Assay Kit II (Roche, USA) by following the manufacturer's instruction.

[5] = tested on: HD patient-iPS cell derived neurons; assay: Mitochondrial mass (Mitotracker green); format: cell-based, human; settings: 1 μM per day for 5 days
Experimental: as §1, §2

**Q.** `CSCC[C@H](NC(=O)[C@@H](NC(=O)[C@H](CC(C)C)NC(=O)[C@@H](NC(=O)[C@H](Cc1c[nH]cn1)NC(=O)CCCCCNC(=O)[C@H](CCCNC(=N)N)NC(=O)[C@H](CCCNC(=N)N)NC(=O)[C@H](CCCNC(=N)N)NC(=O)[C@H](CCC(N)=O)NC(=O)[C@H](CCCNC(=N)N)NC(=O)[C@H](CCCNC(=N)N)NC(=O)[C@H](CCCCN)NC(=O)[C@H](CCCCN)NC(=O)[C@H](CCCNC(=N)N)NC(=O)CNC(=O)[C@@H](N)Cc1ccc(O)cc1)C(C)C)C(C)C)C(=O)N[C@@H](CS)C(=O)N[C@@H](C)C(=O)N[C@H](C(N)=O)[C@@H](C)O` [HV-3] was tested. Which mitochondrial membrane potential [1] did it give?
**A.** improved MMP

**Q.** And the “number of GFP-LC3B puncta” value [2]?
**A.** reduced by treatment with HV-3

**Q.** What about the “motor activity of wt mice” value [3] of the same compound?
**A.** did not affect motor activity in wt mice

**Q.** And the HMGB1 release [4]?
**A.** reduced the release of high mobility group box 1 (HMGB1)

**Q.** And the mitochondrial mass [5]?
**A.** corrected these aberrant events
